# Test system: cell lines carrying AFP receptor
# Experiment: Anti-cancer activities: in vitro antiproliferative assay (IC50)
# Assay type: cell-based
# Conditions: samples in PBS pH 7.4; concentration expressed as Pac or Pac-succinate; read-out: IC50 ± std. error (nM) for Pac or Pac-succinate
row,Compound,IC50 [nM]
1,paclitaxel succinate [Paclitaxel-Succinate],26.5 ± 11.3
2,CC(=O)O[C@H]1C(=O)[C@@]2(C)[C@H]([C@H](OC(=O)c3ccccc3)[C@]3(O)C[C@H](OC(=O)[C@H](O)[C@@H](NC(=O)c4ccccc4)c4ccccc4)C(C)=C1C3(C)C)[C@]1(OC(C)=O)CO[C@@H]1C[C@@H]2O [Paclitaxel],3.4 ± 0.8

# Source: patent US20180015066A1, “DRUG COMPLEXES COMPRISING ALPHA-FETOPROTEIN” (UNIVERSITY HEALTH NETWORK, priority 2015, published 2018)
